Assay results from US9994541B2, “Nitroalkene trolox derivatives and methods of use thereof in the treatment and prevention of inflammation related conditions” (Institut Pasteur de Montevideo, priority 2016, dated 2018).

Experiments:
[1] = Michael adduct formation with β-mercaptoethanol (UV-visible spectra, stopped-flow kinetics); format: physicochemical; conditions: 25 μM compound, BME 0.54-2.73 mM, absorbance at 260 nm, 25° C.
Protocol: UV-visible spectra was acquired by a Varian Cary 50 Bio. Scans were taken every min up to 15 min.
(§1) In FIG. 2, it is shown that the reaction between NATx0 and BME was determined to be a second order rate constant. Stopped-flow kinetic measurements were performed using a Rx 2000 stopped flow analyzer (Applied Photophysics). Mixutres of 150 μL NATx0 (25 μM) and solutions of BME at 0.54 mM, 1.09 mM, 1.64 mM, 2.18 mM, and 2.73 mM concentrations.

HO-1 = test: Western blot of HO-1 protein expression in Raw 264.7 macrophages; format: cell-based, murine; conditions: Raw 264.7 cells, 5 μM, 18 hours
Protocol: (§2) Raw 264.7 cells, a murine macrophage cell line catalog no. TIB-71TM (ATCC, Manassas, Va.), were treated with NATx0 or NATx5 (5 μM) for 18 hours. Cells were lysed, and total protein concentration was measured with Pierce BCA assay (Thermo Fisher Scientific, Rockford, Ill.). For electrophoresis, 30 μg of protein was used in each line. The proteins were electrophoresed on a Tris/glycine SDS-polyacrylamide gradient gel (10-15%) and transferred to nitrocellulose membrane. The primary antibodies used for detection was rabbit polyclonal anti-HO-1 or anti-GCLM (Abcam, Cambridge, Mass.). Blots were visualized using horseradish peroxidase-conjugated secondary antibodies and ECL Plus detection system (GE Healthcare, Little Chalfont, UK). Blots were detected with a scanner. Protein expression was quantified with ImageQuant TL7.0 software (GE Healthcare, Little Chalfont, UK).

serum levels of IL-1β = test: LPS-induced inflammatory response in C57BL/6 mice, serum IL-1β by ELISA; format: in vivo; conditions: 20 mg/kg i.p. 1 hour before 10 mg/kg LPS i.p., 2 hours after LPS
Protocol: In vivo testing was carried out in C57BL/6 mice. The mice were injected intraperitoneally (“i.p.”) with 20 mg/kg NATx0 or a control (DMSO) 1 hour before i.p. injection of 10 mg/kg LPS Escherichia coli 055:B5 (Sigma-Aldrich). After 2 hours the mice were killed, and serum levels of IL-1β were measured by ELISA to determine inflammatory response.

THP-1 cells = test: Cell viability (MTT) of THP-1 macrophages stimulated with LPS and ATP; format: cell-based; conditions: THP-1 macrophages activated by LPS or ATP, compound 0.5-20 μM together with first or second signal
Protocol: (§3) FIGS. 6A and 6B illustrate the effect of NATx0 on cell viability and NLRP3 inflammasome activation. THP-1 cells were differentiated into macrophages (PMA 200 nM, 48 hours). […] The cells were treated with NATx0 at 0.5 μM, 1.0 μM, 2.5 μM, 5.0 μM, 10 μM and 20 μM concentrations together with the first signal or the second signal. Cell viability was measured by MTT assay. Supernatant was stored.
(§4) At the first signal, we only observed a full inhibition of the inflammasome at 20 μM.

GCLM = test: Western blot of GCLM protein expression in Raw 264.7 macrophages; format: cell-based, murine; conditions: Raw 264.7 cells, 5 μM, 18 hours
Protocol: as §2

[2] = Michael adduct formation with glutathione (UV-visible spectra, stopped-flow kinetics); format: physicochemical; conditions: 25 μM compound, absorbance at 260 nm, 25° C.
Protocol: In FIG. 3, 130 μM NATx0 was incubated with 2 mM Glutathione (Sigma) in 100 mM pH 7 phosphate buffer. UV-visible spectra was acquired by a Varian Cary 50 Bio. Scans were taken every min up to 15 min.
as §1, with “FIG.” for “In FIG.”, “4 illustrates a second order rate constant of” for “2, it is shown that”, “GSH.” for “BME was determined to be a second order rate constant.”

NLRP3 inflammasome = NLRP3 inflammasome activation in THP-1 macrophages, IL-1β by ELISA; format: cell-based
Protocol: as §3
In FIGS. 7A and 7B, supernatant stored from the previously described experiment were measured for IL-1β by ELISA.
as §4

[3] = Stability in polyethylene glycol 300-400 at 37° C.; format: physicochemical; conditions: PEG 300 to PEG 400, 37° C., two weeks, RP-HPLC
Protocol: FIG. 10 presents the incubation of NATx0 incubated in PEG 300 to PEG 400 at 37° C. for two weeks. At each time point, an aliquot was extracted with methanol and analyzed by reverse phase chromatography as before. After two weeks in 37° C. in PEG, 50% of the initial concentration of NATx0 was recovered.

NF-κB/p65 = test: LPS-induced NF-κB/p65 nuclear translocation in THP-1 macrophages (immunofluorescence); format: cell-based; conditions: 10 uM, 2 hs before LPS (1 ug/mL)
From the text: Nuclear factor kappa B (NF-κB) represents a family of pro-inflammatory transcription factors, present in all eukaryotic cells, which regulate inducible expression of wide ranging genes involved in immune responses and cell-cycle regulation. Activation of NF-κB is accompanied by nuclear translocation of NF-κB. […] Specifically, FIG. 11 illustrates immunofluorescence and epifluorescence microscopy analysis showing the effect of NATx0 on LPS-induced NF-κB/p65 subcellular localization in THP-1 macrophages.

RAW 264.7 cells = test: Cytotoxicity in RAW 264.7 cells (MTT assay); format: cell-based, murine; conditions: Mus musculus, RAW264.7, 24 h treatment, read-out: IC50 (cell viability)
Protocol: FIG. 8 NATx0 cell cytotoxicity was evaluated in RAW 264.7 cells at 1, 5, 10, 50 and 100 μM in DMSO. Cells were treated for 24 h with NATx0 and then MTT assay was performed. The absorbance at 570 nm was measured for each condition by triplicate. The % cell liability was calculated using control group (DMSO, without treatment). The half maximal inhibitory concentration (IC50) was calculated after % cell viability was plotted against the concentration of NATx0 and fitted to an exponential function using OriginLab software (version 8.0).

SMILES | second order rate constant of the reaction with BME [1] [M⁻¹ s⁻¹] | HO-1 protein expression (HO-1) | inflammatory response (serum IL-1β) (serum levels of IL-1β) | cell mortality (cell viability by MTT) (THP-1 cells) | GCLM protein expression (GCLM) | second order rate constant of the reaction with GSH [2] [M⁻¹ s⁻¹] | concentration giving full inhibition of the inflammasome (NLRP3 inflammasome; compound applied together with the first signal (LPS 250 ng/mL, 3 hours)) [µM] | concentration at which NLRP3 inflammasome activation is already inhibited (NLRP3 inflammasome; compound applied together with the second inflammasome-activating signal) [µM] | inhibition of inflammasome activation (IL-1β) (NLRP3 inflammasome; compound applied together with the second signal (ATP 5 mM, 45 minutes), 0.5-20 μM) | initial concentration recovered [3] [%] | LPS-induced NF-κB/p65 nuclear translocation (NF-κB/p65) | IC50 (RAW 264.7 cells) [µM]
Cc1c(C)c2c(c(C)c1O)CCC(C)(/C=C/[N+](=O)[O-])O2 (racemic) [NATx0, (±)-2,5,7,8-tetramethyl-2-[(E)-2-nitrovinyl]chroman-6-ol] | 23.45 | induced the expression | did not increase | does not induce an increase in cell mortality | induced the expression | 23.45 | 20 | 5 | inhibited inflammasome activation in dose dependent manner | 50 | no change from the negative control | 24
CCC/C(=C\C1(C)CCc2c(C)c(O)c(C)c(C)c2O1)[N+](=O)[O-] (racemic) [NATx5, (±)-2,5,7,8-tetramethyl-2-[(E)-2-nitropent-1-en-1-yl]chroman-6-ol] | – | induced the expression | – | – | induced the expression | – | – | – | – | – | – | –
